Measured values published in patent publication US8680290B2, “Isoxazoline derivatives and their use as herbicides” (Syngenta Limited, priority 2004, dated 2014).

System: Monocotyledonous and dicotyledonous test plants
Test: Example B1 herbicidal action, application pre-emergence (Table B1b)
Assay type: in vivo
Details: 250 g/ha, evaluated after 4 weeks
Experimental: Monocotyledonous and dicotyledonous test plants were sown in seed trays in standard soil. Immediately after sowing (pre-emergence) or after 8 to 9 days cultivation (post-emergence), the test compounds were applied by spraying in the form of an aqueous solution derived from the formulation of the technical active ingredient in 0.6 ml acetone and 45 ml formulation solution containing 10.6% Emulsogen EL (CAS RN 61791-12-6), 42.2% N-methylpyrrolidone, 42.2% dipropylene glycol monomethyl ether (CAS RN 34590-94-8) and 0.2% X-77 (CAS RN 11097-66-8). The test plants were then grown in a greenhouse under optimum conditions. After a test duration of 3 weeks (post-emergence) or 4 weeks (pre-emergence), the test was evaluated (10=total damage to plant, 0=no damage to plant).

CC1(C)CC(S(=O)(=O)C(Br)c2cc(F)cc(F)c2)=NO1 (stereo not shown) [1.134]
herbicidal action (damage rating 0-10), Amaranthus: 5 | herbicidal action (damage rating 0-10), Digitaria: 10 | herbicidal action (damage rating 0-10), Panicum: 10 | herbicidal action (damage rating 0-10), Setaria: 9 | herbicidal action (damage rating 0-10), Sida: 0

CC1(C)CC(S(=O)(=O)C(Br)c2ccccc2F)=NO1 (racemic) [1.82]
herbicidal action (damage rating 0-10), Amaranthus: 10 | herbicidal action (damage rating 0-10), Digitaria: 9 | herbicidal action (damage rating 0-10), Panicum: 10 | herbicidal action (damage rating 0-10), Setaria: 9 | herbicidal action (damage rating 0-10), Sida: 0

Cn1nc(C(F)(F)F)c(C(F)(F)S(=O)(=O)C2=NOC(C)(C)C2)c1OCC(F)F [2.21]
herbicidal action (damage rating 0-10), Amaranthus: 10 | herbicidal action (damage rating 0-10), Digitaria: 10 | herbicidal action (damage rating 0-10), Panicum: 10 | herbicidal action (damage rating 0-10), Setaria: 10 | herbicidal action (damage rating 0-10), Sida: 8

Cc1cc(C(F)(Cl)S(=O)(=O)C2=NOC(C)(C)C2)no1 (stereo not shown) [4.01]
herbicidal action (damage rating 0-10), Amaranthus: 8 | herbicidal action (damage rating 0-10), Digitaria: 8 | herbicidal action (damage rating 0-10), Panicum: 8 | herbicidal action (damage rating 0-10), Setaria: 8 | herbicidal action (damage rating 0-10), Sida: 8

CC1(C)CC(S(=O)(=O)C(Br)(Br)c2c(F)cccc2F)=NO1 [1.50]
herbicidal action (damage rating 0-10), Amaranthus: 10 | herbicidal action (damage rating 0-10), Digitaria: 9 | herbicidal action (damage rating 0-10), Panicum: 10 | herbicidal action (damage rating 0-10), Setaria: 10 | herbicidal action (damage rating 0-10), Sida: 7

CC1(C)CC(S(=O)(=O)C(Cn2ccnc2)c2c(F)cccc2F)=NO1 (racemic) [Compound No. 1.87]
herbicidal action (damage rating 0-10), Amaranthus: 3 | herbicidal action (damage rating 0-10), Digitaria: 7 | herbicidal action (damage rating 0-10), Panicum: 5 | herbicidal action (damage rating 0-10), Setaria: 7 | herbicidal action (damage rating 0-10), Sida: 0

CC1(C)CC(S(=O)(=O)C(Br)c2ccc(F)cc2F)=NO1 (stereo not shown) [1.150]
herbicidal action (damage rating 0-10), Amaranthus: 6 | herbicidal action (damage rating 0-10), Digitaria: 10 | herbicidal action (damage rating 0-10), Panicum: 10 | herbicidal action (damage rating 0-10), Setaria: 9 | herbicidal action (damage rating 0-10), Sida: 0

Cc1ccc(F)c(C(Cl)S(=O)(=O)C2=NOC(C)(C)C2)c1F (stereo not shown) [1.145]
herbicidal action (damage rating 0-10), Amaranthus: 10 | herbicidal action (damage rating 0-10), Digitaria: 10 | herbicidal action (damage rating 0-10), Panicum: 10 | herbicidal action (damage rating 0-10), Setaria: 10 | herbicidal action (damage rating 0-10), Sida: 7

Cc1nn(C)c(OCC(F)(F)F)c1C(F)S(=O)(=O)C1=NOC(C)(C)C1 (stereo not shown) [Compound No. 2.24]
herbicidal action (damage rating 0-10), Amaranthus: 10 | herbicidal action (damage rating 0-10), Digitaria: 10 | herbicidal action (damage rating 0-10), Setaria: 10 | herbicidal action (damage rating 0-10), Sida: 5

Cc1nsc(C#N)c1C(F)S(=O)(=O)C1=NOC(C)(C)C1 (stereo not shown) [Compound No. 3.01, 4-[(5,5-dimethyl-4,5-dihydroisoxazole-3-sulfonyl)-fluoromethyl]-3-methyl-isothiazole-5-carbonitrile]
herbicidal action (damage rating 0-10), Amaranthus: 7 | herbicidal action (damage rating 0-10), Digitaria: 8 | herbicidal action (damage rating 0-10), Panicum: 10 | herbicidal action (damage rating 0-10), Setaria: 7 | herbicidal action (damage rating 0-10), Sida: 0

Cn1nc(C(F)(F)F)c(C(C(=O)C(F)F)S(=O)(=O)C2=NOC(C)(C)C2)c1OCC(F)(F)F (stereo not shown) [2.06]
herbicidal action (damage rating 0-10), Amaranthus: 7 | herbicidal action (damage rating 0-10), Digitaria: 8 | herbicidal action (damage rating 0-10), Panicum: 8 | herbicidal action (damage rating 0-10), Setaria: 7 | herbicidal action (damage rating 0-10), Sida: 3

Cc1noc(C)c1C(Cl)(Cl)S(=O)(=O)C1=NOC(C)(C)C1 [Compound No. 3.04]
herbicidal action (damage rating 0-10), Amaranthus: 3 | herbicidal action (damage rating 0-10), Digitaria: 9 | herbicidal action (damage rating 0-10), Panicum: 10 | herbicidal action (damage rating 0-10), Setaria: 9 | herbicidal action (damage rating 0-10), Sida: 0

Cc1cc(C(F)S(=O)(=O)C2=NOC(C)(C)C2)no1 (stereo not shown) [4.02]
herbicidal action (damage rating 0-10), Amaranthus: 10 | herbicidal action (damage rating 0-10), Digitaria: 8 | herbicidal action (damage rating 0-10), Panicum: 10 | herbicidal action (damage rating 0-10), Setaria: 7 | herbicidal action (damage rating 0-10), Sida: 0
